Data published in US20250296959A1, “B7-H3 TARGETING PEPTIDES AND CONSTRUCTS THEREOF” (Mariana Oncology Inc., priority 2024, published 2025).
Starred links: 1 amine or outer side, 2 acyl side, 3 side chain; linkers in the order of their positions; H or OH if unused. Positions of bridges follow the written chain, without caps; N, C: chain ends. Non-standard residues stand in square brackets, D forms with d. Residues, ends and D or L forms follow the SMILES beside them. Groups on a side chain read outwards from the residue. *: point of attachment. Ala(piperidin-4-yl) = O=C([C@H](CC1CCN([*:3])CC1)N[*:1])[*:2]; DOTA = O=C(O)CN1CCN(CC(=O)O)CCN(CC(=O)*)CCN(CC(=O)O)CC1; X5 = O=C(O)CC1CCN(CC(=O)O)CCN(CC(=O)O)CCN(CC(=O)*)CC1; NH(CH2CH2O)4CH2CO = O=C(COCCOCCOCCOCCN[*:1])[*:2]; Tyr(SO2F) = N[C@@H](Cc1ccc(OS(=O)(=O)F)cc1)C(=O)O; Trp(5-F) = N[C@@H](Cc1c[nH]c2ccc(F)cc12)C(=O)O; X11 = O=C(CCCc1ccc(I)cc1)NCCOCCOCCOCCOCC(=O)*; PEG8 = NCCOCCOCCOCCOCCOCCOCCOCCOCCC(=O)O; Ala(4-THP) = N[C@@H](CC1CCOCC1)C(=O)O; Val(3-OH) = CC(C)(O)[C@H](N)C(=O)O; X14 = CC(C)CC[C@H](NC(N)=O)C(=O)*; Tle = CC(C)(C)[C@H](N)C(=O)O; hLeu = CC(C)CC[C@H](N)C(=O)O; Nle = CCCC[C@H](N)C(=O)O; PEG2 = NCCOCCOCCC(=O)O

What follows are compounds tested against T1, human 4lg B7-H3 (Homo sapiens, UniProt Q5ZPR3) (assay: Affinity determination by surface plasmon resonance (SPR) to 4Ig B7-H3). Conditions: not given.
T1 sequence (Q5ZPR3 29-534): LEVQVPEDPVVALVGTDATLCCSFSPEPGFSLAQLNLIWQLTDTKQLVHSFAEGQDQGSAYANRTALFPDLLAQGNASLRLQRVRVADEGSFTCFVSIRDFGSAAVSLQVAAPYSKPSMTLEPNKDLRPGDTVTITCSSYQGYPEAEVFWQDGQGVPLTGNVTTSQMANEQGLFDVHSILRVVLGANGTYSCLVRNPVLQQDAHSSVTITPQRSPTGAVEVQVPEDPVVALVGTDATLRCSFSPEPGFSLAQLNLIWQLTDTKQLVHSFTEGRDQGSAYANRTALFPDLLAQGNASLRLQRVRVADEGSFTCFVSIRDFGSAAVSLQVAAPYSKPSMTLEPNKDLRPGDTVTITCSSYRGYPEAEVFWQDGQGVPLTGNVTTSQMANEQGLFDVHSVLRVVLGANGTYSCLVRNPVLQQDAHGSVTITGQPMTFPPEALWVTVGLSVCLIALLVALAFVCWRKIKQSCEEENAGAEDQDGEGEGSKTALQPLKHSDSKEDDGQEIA

SMILES	Kd [nM]
CC(=O)N[C@@H](CCC(C)C)C(=O)N[C@@H](Cc1ccc(O)cc1)C(=O)N[C@H]1CSSC[C@@H](C(=O)N[C@@H](Cc2c[nH]c3ccc(F)cc23)C(=O)N[C@@H](Cc2ccccc2)C(=O)N[C@H](C(=O)N[C@H](CCCCNC(=O)CN2CCN(CC(=O)O)CCN(CC(=O)O)CCN(CC(=O)O)CC2)C(=O)O)C(C)(C)O)NC(=O)[C@H](Cc2ccc(OS(=O)(=O)F)cc2)NC(=O)[C@H](C(C)C)NC(=O)[C@H](CC(=O)O)NC(=O)[C@H](CC2CCOCC2)NC(=O)[C@H](CCCCN)NC(=O)CNC(=O)[C@H](C(C)(C)C)NC1=O [Cpd #389, Ac-hLeu-Y-C-Tbg-G-K-ThpA-D-V-FSY-C-5FW-F-hydroxyVal-dLys(DOTA)-COOH] (Ac-[hLeu]YC[Tle]GK[Ala(4-THP)]DV[Tyr(SO2F)]C[Trp(5-F)]F[Val(3-OH)][dK](DOTA)-OH; disulfide 3-11)	< 1

Same assay, conditions: SPR KD—25° C., 4Ig B7-H3; 25° C. flow cell temperature

Kd [nM]	SMILES
1 to 10	CCCC[C@H](NC(C)=O)C(=O)N[C@@H](Cc1ccc(O)cc1)C(=O)N[C@H]1CSSC[C@@H](C(=O)N[C@@H](Cc2c[nH]c3ccccc23)C(=O)N[C@@H](Cc2ccccc2)C(=O)N[C@H](C(=O)N[C@H](CCCCNC(=O)CN2CCC(CC(=O)O)CCN(CC(=O)O)CCN(CC(=O)O)CC2)C(N)=O)[C@@H](C)O)NC(=O)[C@H](Cc2ccc(O)cc2)NC(=O)[C@H](C(C)C)NC(=O)[C@H](CC(=O)O)NC(=O)[C@H](Cc2ccc(O)cc2)NC(=O)[C@H](CCCCN)NC(=O)CNC(=O)[C@H](C(C)C)NC1=O (stereo partly drawn) [Cpd #27, Ac-Nle-Y-C-V-G-K-Y-D-V-Y-C-W-F-Thr-dLys(DOTA)-CONH2] (Ac-[Nle]YCVGKYDVYCWFT[dK](X5)-NH2; disulfide 3-11)
1 to 10	CC(=O)N[C@@H](CCC(C)C)C(=O)N[C@@H](Cc1ccc(O)cc1)C(=O)N[C@H]1CSSC[C@@H](C(=O)N[C@@H](Cc2c[nH]c3ccccc23)C(=O)N[C@@H](Cc2ccccc2)C(=O)N[C@H](C(=O)N[C@H](CCCCNC(=O)CN2CCN(CC(=O)O)CCN(CC(=O)O)CCN(CC(=O)O)CC2)C(N)=O)[C@@H](C)O)NC(=O)[C@H](Cc2ccc(O)cc2)NC(=O)[C@H](C(C)C)NC(=O)[C@H](CC(=O)O)NC(=O)[C@H](Cc2ccc(O)cc2)NC(=O)[C@H](CCCCN)NC(=O)CNC(=O)[C@H](C(C)C)NC1=O [Cpd #67, Ac-hLeu-Y-C-V-G-K-Y-D-V-Y-C-W-F-Thr-dLys(DOTA)-CONH2] (Ac-[hLeu]YCVGKYDVYCWFT[dK](DOTA)-NH2; disulfide 3-11)
10 to 100	CC(C)CC[C@H](NC(=O)COCCOCCOCCOCCNC(=O)CN1CCN(CC(=O)O)CCN(CC(=O)O)CCN(CC(=O)O)CC1)C(=O)N[C@@H](Cc1ccc(O)cc1)C(=O)N[C@H]1CSSC[C@@H](C(=O)N[C@@H](Cc2c[nH]c3ccc(F)cc23)C(=O)N[C@@H](Cc2ccccc2)C(=O)N2CCC[C@H]2C(=O)O)NC(=O)[C@H](Cc2ccc(O)cc2)NC(=O)[C@H](C(C)C)NC(=O)[C@H](CC(=O)O)NC(=O)[C@H](CC2CCOCC2)NC(=O)[C@H](CCCCN)NC(=O)CNC(=O)[C@H](C(C)(C)C)NC1=O [Cpd #306, DOTA-PEG4-hLeu-Y-C-Tbg-G-K-ThpA-D-V-Y-C-5FW-F-Pro-COOH] ({DOTA}-[NH(CH2CH2O)4CH2CO][hLeu]YC[Tle]GK[Ala(4-THP)]DVYC[Trp(5-F)]FP-OH; disulfide 4-12)

Same assay, conditions: SPR KD—37° C., 4Ig B7-H3; 37° C. flow cell temperature

SMILES	Kd [nM]
CCCC[C@H](NC(C)=O)C(=O)N[C@@H](Cc1ccc(O)cc1)C(=O)N[C@H]1CSSC[C@@H](C(=O)N[C@@H](Cc2c[nH]c3ccccc23)C(=O)N[C@@H](Cc2ccccc2)C(N)=O)NC(=O)[C@H](Cc2ccc(O)cc2)NC(=O)[C@H](C(C)C)NC(=O)[C@H](CC(=O)O)NC(=O)[C@H](Cc2ccc(O)cc2)NC(=O)[C@H](CCCCN)NC(=O)CNC(=O)[C@H](C(C)C)NC1=O [Cpd #7, Ac-Nle-Y-C-V-G-K-Y-D-V-Y-C-W-F-CONH2] (Ac-[Nle]YCVGKYDVYCWF-NH2; disulfide 3-11)	10 to 100
CCCC[C@H](NC(C)=O)C(=O)N[C@@H](Cc1ccc(O)cc1)C(=O)N[C@H]1CSSC[C@@H](C(=O)N[C@@H](Cc2c[nH]c3ccccc23)C(=O)N[C@@H](Cc2ccccc2)C(=O)N[C@H](C(=O)N[C@H](CCCCNC(=O)CN2CCC(CC(=O)O)CCN(CC(=O)O)CCN(CC(=O)O)CC2)C(N)=O)[C@@H](C)O)NC(=O)[C@H](Cc2ccc(O)cc2)NC(=O)[C@H](C(C)C)NC(=O)[C@H](CC(=O)O)NC(=O)[C@H](Cc2ccc(O)cc2)NC(=O)[C@H](CCCCN)NC(=O)CNC(=O)[C@H](C(C)C)NC1=O (stereo partly drawn) [Cpd #27, Ac-Nle-Y-C-V-G-K-Y-D-V-Y-C-W-F-Thr-dLys(DOTA)-CONH2] (Ac-[Nle]YCVGKYDVYCWFT[dK](X5)-NH2; disulfide 3-11)	1 to 10
CC(=O)N[C@@H](CCC(C)C)C(=O)N[C@@H](Cc1ccc(O)cc1)C(=O)N[C@H]1CSSC[C@@H](C(=O)N[C@@H](Cc2c[nH]c3ccc(F)cc23)C(=O)N[C@@H](Cc2ccccc2)C(=O)N[C@H](C(=O)N[C@H](CCCCNC(=O)CN2CCN(CC(=O)O)CCN(CC(=O)O)CCN(CC(=O)O)CC2)C(=O)O)C(C)(C)O)NC(=O)[C@H](Cc2ccc(O)cc2)NC(=O)[C@H](C(C)C)NC(=O)[C@H](CC(=O)O)NC(=O)[C@H](CC2CCOCC2)NC(=O)[C@H](CC2CCN(C(=O)COCCOCCOCCOCCNC(=O)CCCc3ccc(I)cc3)CC2)NC(=O)CNC(=O)[C@H](C(C)(C)C)NC1=O [Cpd #364, Ac-hLeu-Y-C-Tbg-G-Pip(PEG4-AB)Ala-ThpA-D-V-Y-C-5FW-F-hydroxyVal-dLys(DOTA)-COOH] (Ac-[hLeu]YC[Tle]G[Ala(piperidin-4-yl)](X11)[Ala(4-THP)]DVYC[Trp(5-F)]F[Val(3-OH)][dK](DOTA)-OH; disulfide 3-11)	1 to 10
CC(C)CC[C@H](NC(=O)CCOCCOCCOCCOCCOCCOCCOCCOCCNC(=O)CN1CCN(CC(=O)O)CCN(CC(=O)O)CCN(CC(=O)O)CC1)C(=O)N[C@@H](Cc1ccc(O)cc1)C(=O)N[C@H]1CSSC[C@@H](C(=O)N[C@@H](Cc2c[nH]c3ccc(F)cc23)C(=O)N[C@@H](Cc2ccccc2)C(=O)N[C@H](C(N)=O)C(C)(C)O)NC(=O)[C@H](Cc2ccc(O)cc2)NC(=O)[C@H](C(C)C)NC(=O)[C@H](CC(=O)O)NC(=O)[C@H](CC2CCOCC2)NC(=O)[C@H](CCCCN)NC(=O)CNC(=O)[C@H](C(C)(C)C)NC1=O [Cpd #391, DOTA-PEG8-hLeu-Y-C-Tbg-G-K-ThpA-D-V-Y-C-5FW-F-hydroxyVal-CONH2] ({DOTA-PEG8}-[hLeu]YC[Tle]GK[Ala(4-THP)]DVYC[Trp(5-F)]F[Val(3-OH)]-NH2; disulfide 3-11)	1 to 10
CC(=O)N[C@@H](CCC(C)C)C(=O)N[C@@H](Cc1ccc(O)cc1)C(=O)N[C@H]1CSSC[C@@H](C(=O)N[C@@H](Cc2c[nH]c3ccc(F)cc23)C(=O)N[C@@H](Cc2ccccc2)C(=O)N[C@H](C(=O)N[C@H](CCC(=O)O)C(N)=O)C(C)(C)O)NC(=O)[C@H](Cc2ccc(O)cc2)NC(=O)[C@H](C(C)C)NC(=O)[C@H](CC(=O)O)NC(=O)[C@H](CC2CCN(C(=O)CCOCCOCCNC(=O)CN3CCN(CC(=O)O)CCN(CC(=O)O)CCN(CC(=O)O)CC3)CC2)NC(=O)[C@H](CC2CCNCC2)NC(=O)CNC(=O)[C@H](C(C)(C)C)NC1=O [Cpd #458, Ac-hLeu-Y-C-Tbg-G-PipAla-Pip(PEG2-DOTA)Ala-D-V-Y-C-5FW-F-hydroxyVal-dGlu-CONH2] (Ac-[hLeu]YC[Tle]G[Ala(piperidin-4-yl)][Ala(piperidin-4-yl)]([PEG2-DOTA])DVYC[Trp(5-F)]F[Val(3-OH)][dE]-NH2; disulfide 3-11)	< 1

More lines, now with the values ahead:

Kd [nM]	SMILES
< 1	CC(=O)N[C@@H](CCC(C)C)C(=O)N[C@@H](Cc1ccc(O)cc1)C(=O)N[C@H]1CSSC[C@@H](C(=O)N[C@@H](Cc2c[nH]c3ccc(F)cc23)C(=O)N[C@@H](Cc2ccccc2)C(=O)N[C@H](C(=O)N[C@H](CCCCNC(=O)CN2CCN(CC(=O)O)CCN(CC(=O)O)CCN(CC(=O)O)CC2)C(=O)O)C(C)(C)O)NC(=O)[C@H](Cc2ccc(O)cc2)NC(=O)[C@H](C(C)C)NC(=O)[C@H](CC(=O)O)NC(=O)[C@H](CC2CCC(O)CC2)NC(=O)[C@H](CC2CCNCC2)NC(=O)CNC(=O)[C@H](C(C)(C)C)NC1=O (single isomer, unassigned) [compound 479, Ac-hLeu-Y-C-Tbg-G-PipAla-4OHCha(pk1)-D-V-Y-C-5FW-F-hydroxyVal-dLys(DOTA)-COOH]
< 1	CC(C)CC[C@H](NC(N)=O)C(=O)N[C@@H](Cc1ccc(O)cc1)C(=O)N[C@H]1CSSC[C@@H](C(=O)N[C@@H](Cc2c[nH]c3ccc(F)cc23)C(=O)N[C@@H](Cc2ccccc2)C(=O)N[C@H](C(=O)N[C@H](CCCCNC(=O)CN2CCN(CC(=O)O)CCN(CC(=O)O)CCN(CC(=O)O)CC2)C(=O)O)C(C)(C)O)NC(=O)[C@H](Cc2ccc(O)cc2)NC(=O)[C@H](C(C)C)NC(=O)[C@H](CC(=O)O)NC(=O)[C@H](CC2CCOCC2)NC(=O)[C@H](CC2CCNCC2)NC(=O)CNC(=O)[C@H](C(C)(C)C)NC1=O [Cpd #468, urea-hLeu-Y-C-Tbg-G-PipAla-ThpA-D-V-Y-C-5FW-F-hydroxyVal-dLys(DOTA)-COOH] (X14-YC[Tle]G[Ala(piperidin-4-yl)][Ala(4-THP)]DVYC[Trp(5-F)]F[Val(3-OH)][dK](DOTA)-OH; disulfide 2-10)

Same assay, conditions: read-out: SPR KD—37° C.; 4Ig B7-H3; 37° C. flow cell temperature

Kd [nM]	SMILES
< 1	CC(=O)N[C@@H](CCC(C)C)C(=O)N[C@@H](Cc1ccc(O)cc1)C(=O)N[C@H]1CSSC[C@@H](C(=O)N[C@@H](Cc2c[nH]c3ccc(F)cc23)C(=O)N[C@@H](Cc2ccccc2)C(=O)N[C@H](C(=O)N[C@H](CCCCNC(=O)CN2CCN(CC(=O)O)CCN(CC(=O)O)CCN(CC(=O)O)CC2)C(=O)O)C(C)(C)O)NC(=O)[C@H](Cc2ccc(O)cc2)NC(=O)[C@H](C(C)C)NC(=O)[C@H](CC(=O)O)NC(=O)[C@H](CC2CCC(O)CC2)NC(=O)[C@H](CC2CCNCC2)NC(=O)CNC(=O)[C@H](C(C)(C)C)NC1=O (single isomer, unassigned) [compound 480, Ac-hLeu-Y-C-Tbg-G-PipAla-4OHCha(pk2)-D-V-Y-C-5FW-F-hydroxyVal-dLys(DOTA)-COOH]
